In ChEMBL document CHEMBL4043188, “Structural characterization of a new steroidal saponin from Agave angustifolia var. Marginata and a preliminary investigation of its in vivo antiulcerogenic activity and in vitro membrane permeability property” (Bioorg Med Chem Lett, 2017):
The source made the active and inactive calls. The rule behind the calls is not given here.

Tested on: Mus musculus
Experiment: Antiulcerogenic activity against acidified ethanol induced-gastric lesions in Swiss mouse at 100 mg/kg, po administered 1 hr prior to acidified ethanol challenge measured after 1 hr
Format: functional, organism-based

| SMILES | Activity |
| --- | --- |
| CO[C@]1(CC[C@@H](C)CO[C@H]2O[C@@H](CO)[C@H](O)[C@@H](O)[C@@H]2O)O[C@H]2C[C@H]3[C@@H]4CC[C@H]5C[C@@H](O[C@@H]6O[C@H](CO)[C@H](O[C@@H]7O[C@H](CO)[C@@H](O)[C@H](O[C@@H]8O[C@H](CO)[C@@H](O)[C@H](O[C@@H]9O[C@H](CO)[C@@H](O)[C@H](O)[C@H]9O)[C@H]8O)[C@H]7O[C@@H]7OC[C@@H](O[C@@H]8O[C@@H](C)[C@H](O)[C@@H](O)[C@H]8O)[C@H](O)[C@H]7O)[C@H](O)[C@H]6O)CC[C@]5(C)[C@H]4CC[C@]3(C)[C@H]2[C@@H]1C | Active |
| C[C@@H]1CC[C@@]2(OC1)O[C@H]1C[C@H]3[C@@H]4C[C@H](O)[C@H]5C[C@@H](O[C@@H]6O[C@H](CO)[C@H](O[C@@H]7O[C@H](CO)[C@@H](O)[C@H](O[C@@H]8O[C@H](CO)[C@@H](O[C@@H]9O[C@@H](C)[C@H](O)[C@@H](O)[C@H]9O)[C@H](O)[C@H]8O)[C@H]7O[C@@H]7O[C@H](CO)[C@@H](O)[C@H](O[C@@H]8O[C@H](CO)[C@@H](O)[C@H](O)[C@H]8O)[C@H]7O)[C@H](O)[C@H]6O)CC[C@]5(C)[C@H]4CC(=O)[C@]3(C)[C@H]1[C@@H]2C | Active |
